The numbers were not newly measured in patent US9242010B2, “Living copolymer-protein/peptide hybrids for biomedical applications” (Research Foundation of The City University of New York, priority 2008, dated 2016), which cites them from elsewhere.

One series concerns avidin/streptavidin. The settings on record: interaction of avidin/streptavidin with biotin.
The conditions of series [1]: background statement.

The structures appear in SMILES notation.

As for `O=C(O)CCCC[C@@H]1SC[C@@H]2NC(=O)N[C@@H]21` [biotin], the Ka in the series on avidin/streptavidin is reported as > 10^14.
Turning to `COc1cc(/C=C/C(=O)CC(=O)/C=C/c2ccc(O)c(OC)c2)ccc1O` [curcumin, (1E,6E)-1,7-bis(4-hydroxy-3-methoxyphenyl)hepta-1,6-diene 3,5-dione], in series [1], the “water and plasma solubility” value is listed as “poor”.
`CC(=O)O[C@H]1C(=O)[C@@]2(C)[C@H]([C@H](OC(=O)c3ccccc3)[C@]3(O)C[C@H](OC(=O)[C@H](O)[C@@H](NC(=O)c4ccccc4)c4ccccc4)C(C)=C1C3(C)C)[C@]1(OC(C)=O)CO[C@@H]1C[C@@H]2O` [taxol]: the water solubility result in series [1] was “not water soluble”.
